Laboratory results taken from US20230126533A1, “Method of treating an inflammatory disorder” (The University of Miami, priority 2020, published 2023).
Starred links: 1 amine or outer side, 2 acyl side, 3 side chain; linkers in the order of their positions; H or OH if unused. Non-standard residues stand in square brackets, D forms with d. *: point of attachment. Tyr(Me) = O-methyl-tyrosine, COc1ccc(C[C@H](N[*:1])C(=O)[*:2])cc1; Phenylacetyl(2,3,4,5,6-F5) = O=C(Cc1c(F)c(F)c(F)c(F)c1F)*; Phe(F5) = N[C@@H](Cc1c(F)c(F)c(F)c(F)c1F)C(=O)O; hArg = N=C(N)NCCCC[C@H](N)C(=O)O; 12Ado = NCCCCCCCCCCCC(=O)O; Nle = CCCC[C@H](N)C(=O)O; Abu = CC[C@H](N)C(=O)O

What was measured:
[1] = test system: C57B1/6 mice challenged with Mycobacterium abscessus (MAB) microparticles; experiment: Lung inflammation score in mouse model of pulmonary sarcoidosis; type: in vivo; details: AVR 5 microgram per mouse daily subcutaneous, after 3 weeks, vs saline granuloma group
Protocol: (§1) A mouse model of pulmonary sarcoidosis was previously established in C57B1/6 mice. Microparticles (Mycobacterium abscessus) developed in-house were administered intratracheally. The tongue was pulled out with a small spatula and microparticle was inserted into the trachea using a 20 G angio-catheter tube and advanced to main bronchus until reach to resistant. After tube placement, microparticles were administered (first dose of 50 μL=5×10^8, followed by up to 3 doses of 20 μL=2×10^8 of CFU of M. abscessus). The control group received only 20 μL PBS intratracheally.
The lung tissue was fixed in formalin and cut for histology. Developed noncaseating granuloma in the mouse lung was visualized with H&E staining and immunohistochemistry staining for CD68 macrophage marker, CD4 marker, and PD-L1.
(§2) One sarcoidosis group received AVR (“AVR group”), administered via subcutaneous injection, 5 microgram per mouse daily. Another sarcoidosis group received steroid treatment ([…], the current first line treatment for sarcoidosis) (“solu-medrol group”), and the final group received only saline (“granuloma group”). After 3 weeks mice were sacrificed and graded the inflammation in the lung samples.
Two mg of AVR-352 was added to 0.5 ml DMSO. After dissolving, 1,2-propanediol 10% was added to reach a volume of 40 ml. The fluid was sterilized by passing through a 0.22-micron filter. […]

iNOS = iNOS expression in lungs of MAB microparticle challenged mice; type: in vivo; details: mouse models of Example 3; vs MAB microparticle alone
Protocol: as §1, §2
Inducible Nitric oxide synthase (iNOS) plays important role in immune response to microbes. NO can control the production of Th1 immune responses by modulating IL-12 expression. NO plays an important inhibitory role in Th17 differentiation. […] To test whether AVR reduces iNOS expression in an inflammation model, lungs from mouse models described in Example 3 were evaluated for iNOS.

[2] = test system: PBMC of subjects with confirmed pulmonary sarcoidosis; experiment: Apoptosis-related proteins in ex vivo sarcoidosis granuloma model (multiplex Elisa); type: cell-based, human; details: PBMC challenged with MAB microparticles 10:1, 48 h; for active caspase 3 concentration: 1 microM AVR
Description: GHRHR antagonists induce apoptosis in cancer cells. The effects of GHRHR antagonist in immune cells still remains unclear. The ability of AVR to induce apoptosis in an ex vivo sarcoidosis model using PBMC of five subjects with confirmed pulmonary sarcoidosis was characterized.
PBMC samples were grouped as “control” (not challenged), “particles” (granuloma), “particles+AVR” (granuloma treated with 1 microM AVR), and “particles+Solu” (granuloma treated with methyl prednisolone as positive control). The “particle” groups were challenged with equal to 10:1 treatment with MAB microparticles. Media from all groups were removed 48 h after of treatments. Survivn, MCL-1/Bak Dimer, BClxL/Bak dimer, and active caspase 3 concentrations were measured using multiplex Elisa instrument and compared using t-test.

IL2, OAS1 and ISG15 = experiment: Cytokine expression (Western blot) in lungs of MAB microparticle challenged mice; type: in vivo; details: mouse models of Example 3; vs MAB microparticle challenge
Protocol: as §1, §2
The effects of AVR on IL2 (T helper 1 cytokine) and Type I interferon cytokines (OAS1 and ISG15) were measured and compared in the lungs of mice models prepared as set forth in Example 3.

CD209f gene = experiment: RNASeq gene expression in lungs of MAB microparticle challenged mice; type: in vivo, mouse; details: challenged mice with AVR treatment vs challenged mice
Protocol: as §1, §2
Whole gene expression was analyzed using RNASeq. Harvested lung from control, challenged, and treatment groups generated as described in Example 3 were used. RNA was isolated and RNASeq was performed at Genomic center at University of Miami. […] A heatmap was generated for the differentiating genes between challenged mice with MAB microparticles versus challenged mice with AVR treatment.

**Q.** Which “lung inflammation score (percentage of lung inflammation)” value [1] does the source give for “5FPhAC-Ada-Tyr-DArg-Asp-Ala-Ile-5FPhe-Thr-Ala-Har-Tyr(Me)-Arg-Lys-Val-Leu-Abu-Gln-Leu-Ser-Ala-Arg-Lys-Leu-Leu-Gln-Asp-Ile-Nle-DArg-Har-Ada-NH2 ({Phenylacetyl(2,3,4,5,6-F5)-12Ado}-Y[dR]DAI[Phe(F5)]TA[hArg][Tyr(Me)]RKVL[Abu]QLSARKLLQDI[Nle][dR][hArg]-{12Ado-NH2}; SMILES CCCC[C@H](NC(=O)[C@@H](NC(=O)[C@H](CC(=O)O)NC(=O)[C@H](CCC(N)=O)NC(=O)[C@H](CC(C)C)NC(=O)[C@H](CC(C)C)NC(=O)[C@H](CCCCN)NC(=O)[C@H](CCCNC(=N)N)NC(=O)[C@H](C)NC(=O)[C@H](CO)NC(=O)[C@H](CC(C)C)NC(=O)[C@H](CCC(N)=O)NC(=O)[C@H](CC)NC(=O)[C@H](CC(C)C)NC(=O)[C@@H](NC(=O)[C@H](CCCCN)NC(=O)[C@H](CCCNC(=N)N)NC(=O)[C@H](Cc1ccc(OC)cc1)NC(=O)[C@H](CCCCNC(=N)N)NC(=O)[C@H](C)NC(=O)[C@@H](NC(=O)[C@H](Cc1c(F)c(F)c(F)c(F)c1F)NC(=O)[C@@H](NC(=O)[C@H](C)NC(=O)[C@H](CC(=O)O)NC(=O)[C@@H](CCCNC(=N)N)NC(=O)[C@H](Cc1ccc(O)cc1)NC(=O)CCCCCCCCCCCNC(=O)Cc1c(F)c(F)c(F)c(F)c1F)[C@@H](C)CC)[C@@H](C)O)C(C)C)[C@@H](C)CC)C(=O)N[C@H](CCCNC(=N)N)C(=O)N[C@@H](CCCCNC(=N)N)C(=O)NCCCCCCCCCCCC(N)=O) [AVR]” here?
**A.** significantly lower inflammation scores

**Q.** And the “iNOS expression in the challenged lung” value (iNOS)?
**A.** significantly reduced MAB-induced increased iNOS expression

**Q.** What about the “active caspase 3 concentration” value [2] of the same compound?
**A.** significantly increased

**Q.** And the “IL2 expression in lung” value (IL2, OAS1 and ISG15)?
**A.** reduced significantly

**Q.** And the “ISG15 expression in lung” value (IL2, OAS1 and ISG15)?
**A.** reduced significantly

**Q.** And the “OAS1 expression in lung” value (IL2, OAS1 and ISG15)?
**A.** reduced significantly

**Q.** What about the “CD209f gene expression in lung” value (CD209f gene) of the same compound?
**A.** significantly downregulated

**Q.** How did the “lung inflammation score (percentage of lung inflammation)” value [1] turn out when C[C@H]1C[C@@H]2[C@H]([C@@H](O)C[C@@]3(C)[C@H]2CC[C@]3(O)C(=O)COC(=O)CCC(=O)[O-])[C@@]2(C)C=CC(=O)C=C12.[Na+] [Solu-Medrol, reference compound] was run?
**A.** less effect than AVR

**Q.** And the “iNOS expression in the challenged lung” value (iNOS)?
**A.** reduced MAB-induced increased iNOS expression

**Q.** What about the “active caspase 3 concentration” value [2] of the same compound?
**A.** significantly increased

**Q.** What about the MCL-1/Bak dimer concentration [2] of the same compound?
**A.** significantly reduced
